Results as given in patent US9034400B2, “Process for preparation of a herbal extract” (Piramal Enterprises Limited, priority 2011, dated 2015).

Test system: subject with uncontrolled type II diabetes / non insulin-dependent diabetes
Assay: Anecdotal studies: hypoglycemic effect, blood glucose level of diabetic subjects
Assay type: in vivo, human
Conditions: before capsules

## CN(C)C(=N)N=C(N)N [metformin]
Study 2: person, 61 kg, non insulin-dependent diabetes, metformin 500 mg BID
  daily blood glucose level (base level) on metformin alone: 234 mg/dL
Study 3: person, 67 kg, non insulin-dependent uncontrolled diabetic, metformin 500 mg, three tablets per day
  daily blood glucose level (base level) on metformin alone: 261 mg/dL
